Literature values in patent US20200306292A1, “METHOD FOR TREATING ACUTE HYPOVOLEMIA” (Wonder Spray, LLC, priority 2019, published 2020).

Experiments:
E. coli [1] = conditions: (2.6 ppm) HOCl, within 5 minutes
f2 RNA = conditions: naked f2 RNA compared with RNA in intact phage
[2] = inhalation
E. coli [3] = conditions: 50 mM (2.6 ppm) HOCl, within 5 minutes

OCl [HOCl, hypochlorous acid]
growth of E. coli (E. coli [1]): completely inhibited | inactivation of naked f2 RNA (f2 RNA): inactivated naked f2 RNA at the same rate as RNA in intact phage | adverse effects on inhaling the aerosolized form [2]: no adverse effects | inhibiting the DNA synthesis (E. coli [3]): ninety-six
